Structures are written as SMILES. Converted amounts (≈) assume the structure as drawn.

Data set [1] in a line: Aqueous solubility. It is filed as physicochemical.
For data set [2] the following is noted: solution pH 8, stored at room temperature for approximately 16 months.

As to `C#CCOc1ccc(Nc2nc(Nc3ccc(C)c(S(N)(=O)=O)c3)ncc2F)cc1` [Compound II, N2-(3-aminosulfonyl-4-methylphenyl)-5-fluoro-N4-[4-(prop-2-ynyloxy)phenyl]-2,4-pyrimidinediamine], the solubility in data set [1] (water (aqueous), room temperature) is around 0.9 µg/mL (≈ 2.11 µM).
For the compound `C#CCOc1ccc(Nc2nc(Nc3ccc(C)c(S(=O)(=O)NC(=O)CC)c3)ncc2F)cc1.C[N+](C)(C)CCO` [VII, 5-Fluoro-N2-[4-methyl-3-(N-propionylaminosulfonyl)phenyl]-N4-[4-(2-propynyloxy)phenyl]-2,4-pyrimidinediamine Choline Salt], in data set [2], the “compound I choline salt converted to compound II” value is “about 5%”. Besides, the “aqueous solubility compared with free acid form and compound II” value in data set [1] is “significantly higher aqueous solubility than both its free acid form and compound II”. For the same compound, the solubility in water result in data set [1] (in water) was “about 9.1 mg/mL”.

As a reminder, the solubility is how much of the substance goes into solution per volume. A low value points to a poorly soluble substance.

The values above are taken from patent US20140206708A1, “COMPOSITION FOR OPHTHALMIC ADMINISTRATION” (Rigel Pharmaceuticals, Inc., priority 2013, published 2014).
